Read-outs that look alike come from different tables or passages of the source.
Tests used:
[1] = tested on: hypotension induced by PAF; test: Inhibition of the hypotensive effect induced by PAF in normotense rats; format: in vivo, Sprage Dawley rats; details: for ED50: Rattus norvegicus, iv, read-out: ID₅₀
Method: Inhibition of the hypotensive effect induced by PAF in normotense rats.
Male Sprage Dawley rats, of 180-220 g of weight, anesthetized with sodium pentobarbital (50 mg/Kg, i.p. 1 mL/100 g) have been used. In order to measure the average arterial pressure, a polyethylene catheter is introduced into the carotid artery. The arterial pressure is recorded with the help of a transducer connected with a R611 Beckman polygraph. The tested compounds are administered through the femoral vein 3 min. before the injection of PAF (0.5 mcg/Kg, i.v.) . The inhibition of the hypotension induced by PAF of the different compounds is expressed as ID₅₀, that is to say, the amount of compound by weight of animal (dose) needed to inhibit the hypotension induced by PAF in a 50%.

[2] = tested on: platelet aggregation induced by PAF; test: Inhibition of platelet aggregation induced by PAF (platelet rich plasma, Born nephelometric technique); format: cell-based, New Zealand albino rabbits; details: rabbit platelet rich plasma, PAF C₁₈ 16 nM final, concentration needed to inhibit platelet aggregation in a 50%, read-out: IC₅₀
Method: Inhibition of platelet aggregation induced by PAF.
The blood is obtained by cardiac puncture of male New Zealand albino rabbits (between 2 and 2.5 Kg of weight) and coagulation is prevented by adding 1 part of 3.16% sodium citrate dihydrate in 9 parts of blood. The platelet rich plasma (PRP) is prepared by blood centrifugation at 250xg for 10 min. at 4°C and it is diluted with platelet poor plasma (PPP) obtained by additional centrifugation at 3000xg for 10 min. The amount of platelets is adjusted to […]. The platelet aggregation induced by PAF (C₁₈, prepared in our laboratory) (16 nM, final) is determined by the Born nephelometric technique (J. Physiol., 1962, 162, 67) using an aggregometer Chrono-log 500. The activities of the inhibitors are expressed as IC₅₀ values, that is to say the concentration of the drug needed to inhibit the platelet aggregation in a 50%.

mortality induced by PAF = test: Mortality induced by PAF in mice (p.o.); format: in vivo, Swiss mice; details: Mus musculus, oral administration 1 h before 100 mcg/kg PAF-C₁₈ + 1 mg/kg propanolol i.v., examined 2 h after PAF, dose inhibiting mortality in a 50%, read-out: ID₅₀
Method: Mortality induced by PAF in mice (p.o.).
This test was performed according to the procedure described by Young et al. (Prostaglandins, 1985, 30, 545-551). Groups of 10 Swiss mice weighing from 22 to 26 g were used. 100 mcg/kg of PAF-C₁₈ and 1 mg/kg of propanolol were administered through a lateral tail vein 1 h after the oral administration of the compounds to be tested (20 mL/kg). Animals were examined 2 h after the injection of PAF. The percentage of the inhibition of the mortality induced by PAF was determined for all the tested compounds in comparison with the control group. The results are expressed as ID₅₀ values, that is to say, the amount of compound by weight of animal (dose) needed to inhibit the mortality induced by PAF in a 50%.

[3] = anesthetized male rats, compound via femoral vein 3 min before PAF (0.5 mcg/Kg, i.v.), dose inhibiting PAF hypotension in a 50%

Structure (SMILES)	ED50 [1, 3] [mg/kg]	IC50 ([2]; Oryctolagus cuniculus) [nM]	ED50 (mortality induced by PAF) [mg/kg]	ED50 [1] [mg/kg]	ID₅₀ [1, 3] [mg/Kg i.v.]	IC50 [2] [nM]
Cc1ncccc1C(C#N)N1CCN(C(=O)CC(c2ccccc2)c2ccccc2)CC1.Cl.Cl (stereo not drawn) [Compound 1, 1-(3,3-Diphenylpropionyl)-4-[(2-methyl-3-pyridyl)cyanomethyl]piperazine, dihydrochloride]	0.015	18	–	–	–	–
Cc1ncccc1C(C#N)N1CCN(C(=O)CC(O)(c2ccccc2)c2ccccc2)CC1 (stereo not drawn) [Compound 4, 1-(3,3-Diphenyl-3-hydroxypropionyl)-4-[(2-methyl-3-pyridyl)cyanomethyl]piperazine]	0.039	17	0.69	–	–	–
Cc1ncccc1C(C#N)N1CCN(C(=O)C=C(c2ccccc2)c2ccccc2)CC1 (stereo not drawn) [Compound 5, 1-(3,3-Diphenylpropenoyl)-4-[(2-methyl-3-pyridyl)cyanomethyl]piperazine]	0.038	26	–	–	–	–
Cc1ncccc1C(C#N)N1CCN(C(=O)CC(C)(O)c2ccccc2)CC1 (stereo not drawn) [Compound 9, 1-(3-Phenyl-3-hydroxybutanoyl)-4-[(2-methyl-3-pyridyl)cyanomethyl]piperazine]	–	36	–	–	–	–
Cc1ncccc1C(C#N)N1CCN(C(=O)CC(O)(c2ccccc2)C(F)(F)F)CC1 (stereo not drawn) [Compound 11, 1-(3-Phenyl-3-hydroxy-3-(trifluoromethyl)propionyl)-4-[(2-methyl-3-pyridyl)cyanomethyl]piperazine]	0.013	14	0.44	–	–	–
Cc1ncccc1C(C#N)N1CCN(C(=O)CC(NCc2ccccc2)c2ccccc2)CC1 (stereo not drawn) [Compound 15, 1-[3-(N-Benzylamino)-3-phenylpropionyl]-4-[(2-methyl-3-pyridyl)cyanomethyl]piperazine]	0.035	9.1	1.2	–	–	–
Cc1ncccc1C(C#N)N1CCN(C(=O)CC(NC(=O)c2ccccc2)c2ccccc2)CC1 (stereo not drawn) [Compound 16, 1-[3-(N-Benzoylamino)-3-phenylpropionyl]-4-[(2-methyl-3-pyridyl)cyanomethyl]piperazine]	0.056	9.1	–	–	–	–
CC(=O)NC(CC(=O)N1CCN(C(C#N)c2cccnc2C)CC1)c1ccccc1 (stereo not drawn) [Compound 17, 1-[3-(N-acetylamino)-3-phenylpropionyl]-4-[(2-methyl-3-pyridyl)cyanomethyl]piperazine]	0.035	38	0.09	–	–	–
Cc1ncccc1C(C#N)N1CCN(C(=O)CCC(c2ccccc2)c2ccccc2)CC1 (stereo not drawn) [Compound 18, 1-(4,4-Diphenylbutanoyl)-4-[(2-methyl-3-pyridyl)cyanomethyl]piperazine]	0.028	80	–	–	–	–
Cc1ncccc1C(C#N)N1CCN(C(=O)CNC(c2ccccc2)c2ccccc2)CC1 (stereo not drawn) [Compound 22, 1-[N-(Diphenylmethyl)aminoacetyl]-4-[(2-methyl-3-pyridyl)cyanomethyl]piperazine]	0.021	85	0.3	–	–	–
Cc1ncccc1C(C#N)N1CCN(C(=O)[C@H](C)NC(c2ccccc2)c2ccccc2)CC1 (stereo partly drawn) [Compound 28, 1-[(S)-2-(N-(Diphenylmethyl)amino)propionyl]-4-[(2-methyl-3-pyridyl)cyanomethyl]piperazine]	0.025	13	1.6	–	–	–
Cc1ncccc1C(C#N)N1CCN(C(=O)CCNC(c2ccccc2)c2ccccc2)CC1 (stereo not drawn) [Compound 34, 1-[3-(N-(Diphenylmethyl)amino)propionyl]-4-[(2-methyl-3-pyridyl)cyanomethyl]piperazine]	0.044	110	0.62	–	–	–
Cc1ncccc1C(C#N)N1CCN(C(=O)COC(c2ccccc2)c2ccccc2)CC1 (stereo not drawn) [Compound 36, 1-[(Diphenylmethoxy)acetyl]-4-[(2-methyl-3-pyridyl)cyanomethyl]piperazine]	0.048	42	–	–	–	–
COC(=O)NC(CC(=O)N1CCN(C(C#N)c2cccnc2C)CC1)c1ccccc1 (stereo not drawn) [Compound 41, 1-[3-(N-(Methoxycarbonyl)amino)-3-phenylpropionyl]-4-[(2-methyl-3-pyridyl)cyanomethyl]piperazine]	0.015	41	0.044	–	–	–
CCOC(=O)NC(CC(=O)N1CCN(C(C#N)c2cccnc2C)CC1)c1ccccc1 (stereo not drawn) [Compound 42, 1-[3-(N-(Ethoxycarbonyl)amino)-3-phenylpropionyl]-4-[(2-methyl-3-pyridyl)cyanomethyl]piperazine]	0.025	14	0.23	–	–	–
Cc1ncccc1C(C#N)N1CCN(C(=O)CC(NC(=O)Oc2ccccc2)c2ccccc2)CC1 (stereo not drawn) [Compound 44, 1-[3-(N-(Phenoxycarbonyl)amino)-3-phenylpropionyl]-4-[(2-methyl-3-pyridyl)cyanomethyl]piperazine]	–	16	–	0.036	–	–
Cc1ncccc1C(C#N)N1CCN(C(=O)CC(NC(=O)c2cccnc2)c2ccccc2)CC1 (stereo not drawn) [Compound 60, 1-[3-(N-(3-pyridylcarbonyl)amino)-3-phenylpropionyl]-4-[(2-methyl-3-pyridyl)cyanomethyl]piperazine]	0.029	8.9	0.41	–	–	–
Cc1ncccc1C(C#N)N1CCN(C(=O)CC(c2ccccc2)N2CCCC2=O)CC1 (stereo not drawn) [Compound 66, 1-[3-(2-oxo-1-pyrrolidinyl)-3-phenylpropionyl]-4-[(2-methyl-3-pyridyl)cyanomethyl]piperazine]	0.026	29	0.13	–	–	–
Cc1ncccc1C(C#N)N1CCN(C(=O)CC(c2ccccc2)N2CCOC2=O)CC1 (stereo not drawn) [Compound 68, 1-[3-(2-oxo-3-oxazolidinyl)-3-phenylpropionyl]-4-[(2-methyl-3-pyridyl)cyanomethyl]piperazine]	0.029	63	0.3 to 1	–	–	–
Cc1ncccc1C(C#N)N1CCN(C(=O)CC(Nc2ccccc2)c2ccccc2)CC1 (stereo not drawn) [Compound 74, 1-[3-(N-phenylamino)-3-phenylpropionyl]-4-[(2-methyl-3-pyridyl)cyanomethyl]piperazine]	0.042	28	0.27	–	–	–
CC(=O)N(O)C(CC(=O)N1CCN(C(C#N)c2cccnc2C)CC1)c1ccccc1 (stereo not drawn) [Compound 75, 1-[3-(N-acetyl-N-hydroxyamino)-3-phenylpropionyl]-4-[(2-methyl-3-pyridyl)cyanomethyl]piperazine]	0.027	62	0.061	–	–	–
Cc1ncccc1C(C#N)N1CCN(C(=O)CC(c2ccccc2)N(O)C(N)=O)CC1 (stereo not drawn) [Compound 76, 1-[3-(N-carbamoyl-N-hydroxyamino)-3-phenylpropionyl]-4-[(2-methyl-3-pyridyl)cyanomethyl]piperazine]	–	69	–	–	–	–
CNC(=O)N(O)C(CC(=O)N1CCN(C(C#N)c2cccnc2C)CC1)c1ccccc1 (stereo not drawn) [Compound 77, 1-[3-(N-methylcarbamoyl-N-hydroxyamino)-3-phenylpropionyl]-4-[(2-methyl-3-pyridyl)cyanomethyl]piperazine]	0.045	3000	–	–	–	–
Cc1ncccc1C(C#N)N1CCN(C(=O)CC(NC(=O)N(C)O)c2ccccc2)CC1 (stereo not drawn) [Compound 78, 1-[3-(N-(N'-hydroxy-N'-methylcarbamoyl)amino)-3-phenylpropionyl]-4-[(2-methyl-3-pyridyl)cyanomethyl]piperazine]	–	–	–	–	0.055	82

Reference: EP0528172A1, “(2-Alkyl-3-pyridyl)methylpiperazine derivatives as PAF antagonists” (J. URIACH & CIA. S.A., priority 1991, dated 1993)
